Test results published in ChEMBL document CHEMBL3885881, “DrugMatrix”.

Species on record: Rattus norvegicus
Experiment: DrugMatrix - Regimen: Daily Repeat
Format: toxicity, organism-based, Sprague-Dawley
Set-up: regimen Daily Repeat, gender Male, age 6-8 weeks
Details: in vivo, po, route oral GAVAGE, vehicle .5 % CMC; for BASOPHIL / EOSINOPHIL / ERYTHROCYTE COUNT / HEMATOCRIT / HEMOGLOBIN / LEUKOCYTE COUNT / LYMPHOCYTE / MEAN CORPUSCULAR HEMOGLOBIN / MEAN CORPUSCULAR HEMOGLOBIN CONCENTRATION / MEAN CORPUSCULAR VOLUME / MONOCYTE / NEUTROPHIL / PLATELET COUNT: tissue Blood; for ALANINE AMINOTRANSFERASE / ALBUMIN / ALKALINE PHOSPHATASE / ASPARTATE AMINOTRANSFERASE / BLOOD UREA NITROGEN / CHLORIDE / CHOLESTEROL / CREATINE PHOSPHOKINASE / CREATININE / GLUCOSE / PHOSPHORUS / POTASSIUM / SODIUM / TOTAL BILIRUBIN / TOTAL PROTEIN: tissue Plasma
[1] = 0 mg/kg, 72 h, dose level Control, time 3 day
[2] = 0 mg/kg, 120 h, dose level Control, time 5 day
[3] = 750 mg/kg, 72 h, dose level Low, time 3 day
[4] = 750 mg/kg, 120 h, dose level Low, time 5 day
[5] = 2000 mg/kg, 72 h, dose level High, time 3 day
[6] = 2000 mg/kg, 120 h, dose level High, time 5 day

With `NCC(=O)O` [GLYCINE] the BASOPHIL [1] was 0%, the EOSINOPHIL [1] was 0% and the “ERYTHROCYTE COUNT” value [1] was 6.34 x10E6/uL. The HEMATOCRIT [1] was 37.62%, the HEMOGLOBIN [1] was 14.82 G/DL and the “LEUKOCYTE COUNT” value [1] was 11.18 x10E3/uL. For the same compound, the LYMPHOCYTE [1] was 87.5%, the “MEAN CORPUSCULAR HEMOGLOBIN” value [1] was 23.48 pg and the “MEAN CORPUSCULAR HEMOGLOBIN CONCENTRATION” value [1] was 39.5 G/DL. For the same compound, the “MEAN CORPUSCULAR VOLUME” value [1] was 59.45 fL, the MONOCYTE [1] was 1.67% and the NEUTROPHIL [1] was 10.83%. The “PLATELET COUNT” value [1] was 1074.83 x10E3/uL, the “ALANINE AMINOTRANSFERASE” value [1] was 36.5 u/L and the ALBUMIN [1] was 3.9 G/DL. For the same compound, the “ALKALINE PHOSPHATASE” value [1] was 370.17 u/L, the “ASPARTATE AMINOTRANSFERASE” value [1] was 63.17 u/L and the “BLOOD UREA NITROGEN” value [1] was 16.83 mg/dL. For the same compound, the CHLORIDE [1] was 99.33 MEQ/L, the CHOLESTEROL [1] was 64.33 mg/dL and the “CREATINE PHOSPHOKINASE” value [1] was 127 u/L. For the same compound, the CREATININE [1] was 0.55 mg/dL, the GLUCOSE [1] was 173.5 mg/dL and the PHOSPHORUS [1] was 10.08 mg/dL. For the same compound, the POTASSIUM [1] was 6.23 MEQ/L, the SODIUM [1] was 143.5 MEQ/L and the “TOTAL BILIRUBIN” value [1] was 0.52 mg/dL. For the same compound, the “TOTAL PROTEIN” value [1] was 6.35 G/DL, the BASOPHIL [2] was 0% and the EOSINOPHIL [2] was 0.17%. The “ERYTHROCYTE COUNT” value [2] was 6.12 x10E6/uL, the HEMATOCRIT [2] was 37.08% and the HEMOGLOBIN [2] was 14.82 G/DL. For the same compound, the “LEUKOCYTE COUNT” value [2] was 11.87 x10E3/uL, the LYMPHOCYTE [2] was 83.33% and the “MEAN CORPUSCULAR HEMOGLOBIN” value [2] was 24.25 pg. For the same compound, the “MEAN CORPUSCULAR HEMOGLOBIN CONCENTRATION” value [2] was 39.97 G/DL, the “MEAN CORPUSCULAR VOLUME” value [2] was 60.65 fL and the MONOCYTE [2] was 1.5%. For the same compound, the NEUTROPHIL [2] was 15%, the “PLATELET COUNT” value [2] was 1042.83 x10E3/uL and the “ALANINE AMINOTRANSFERASE” value [2] was 46 u/L. For the same compound, the ALBUMIN [2] was 3.82 G/DL, the “ALKALINE PHOSPHATASE” value [2] was 369.5 u/L and the “ASPARTATE AMINOTRANSFERASE” value [2] was 65 u/L. The “BLOOD UREA NITROGEN” value [2] was 16.33 mg/dL, the CHLORIDE [2] was 100.67 MEQ/L and the CHOLESTEROL [2] was 57.17 mg/dL. For the same compound, the “CREATINE PHOSPHOKINASE” value [2] was 130 u/L, the CREATININE [2] was 0.53 mg/dL and the GLUCOSE [2] was 163.33 mg/dL. It also gave a PHOSPHORUS [2] of 9.53 mg/dL, a POTASSIUM [2] of 6.27 MEQ/L and an SODIUM [2] of 144.83 MEQ/L. The “TOTAL BILIRUBIN” value [2] was 0.55 mg/dL, the “TOTAL PROTEIN” value [2] was 6.32 G/DL and the BASOPHIL [3] was 0%. The EOSINOPHIL [3] was 0%, the “ERYTHROCYTE COUNT” value [3] was 6.2 x10E6/uL and the HEMATOCRIT [3] was 37.37%. For the same compound, the HEMOGLOBIN [3] was 14.17 G/DL, the “LEUKOCYTE COUNT” value [3] was 11.6 x10E3/uL and the LYMPHOCYTE [3] was 90%. For the same compound, the “MEAN CORPUSCULAR HEMOGLOBIN” value [3] was 22.83 pg, the “MEAN CORPUSCULAR HEMOGLOBIN CONCENTRATION” value [3] was 37.97 G/DL and the “MEAN CORPUSCULAR VOLUME” value [3] was 60.17 fL. For the same compound, the MONOCYTE [3] was 0%, the NEUTROPHIL [3] was 10% and the “PLATELET COUNT” value [3] was 1191.67 x10E3/uL. For the same compound, the “ALANINE AMINOTRANSFERASE” value [3] was 28 u/L, the ALBUMIN [3] was 3.4 G/DL and the “ALKALINE PHOSPHATASE” value [3] was 270.33 u/L. The “ASPARTATE AMINOTRANSFERASE” value [3] was 46.67 u/L, the “BLOOD UREA NITROGEN” value [3] was 9 mg/dL and the CHLORIDE [3] was 102.33 MEQ/L. For the same compound, the CHOLESTEROL [3] was 55.33 mg/dL, the “CREATINE PHOSPHOKINASE” value [3] was 104.33 u/L and the CREATININE [3] was 0.4 mg/dL. For the same compound, the GLUCOSE [3] was 165 mg/dL, the PHOSPHORUS [3] was 10.73 mg/dL and the POTASSIUM [3] was 6.07 MEQ/L. For the same compound, the SODIUM [3] was 148 MEQ/L, the “TOTAL BILIRUBIN” value [3] was 0.17 mg/dL and the “TOTAL PROTEIN” value [3] was 5.43 G/DL. For the same compound, the BASOPHIL [4] was 0%, the EOSINOPHIL [4] was 0% and the “ERYTHROCYTE COUNT” value [4] was 6.26 x10E6/uL. The HEMATOCRIT [4] was 38.2%, the HEMOGLOBIN [4] was 15 G/DL and the “LEUKOCYTE COUNT” value [4] was 13 x10E3/uL. The LYMPHOCYTE [4] was 89.67%, the “MEAN CORPUSCULAR HEMOGLOBIN” value [4] was 23.97 pg and the “MEAN CORPUSCULAR HEMOGLOBIN CONCENTRATION” value [4] was 39.27 G/DL. The “MEAN CORPUSCULAR VOLUME” value [4] was 61.1 fL, the MONOCYTE [4] was 0.33% and the NEUTROPHIL [4] was 10%. The “PLATELET COUNT” value [4] was 1041.67 x10E3/uL, the “ALANINE AMINOTRANSFERASE” value [4] was 32 u/L and the ALBUMIN [4] was 3.73 G/DL. For the same compound, the “ALKALINE PHOSPHATASE” value [4] was 311.33 u/L, the “ASPARTATE AMINOTRANSFERASE” value [4] was 55.33 u/L and the “BLOOD UREA NITROGEN” value [4] was 12.33 mg/dL. For the same compound, the CHLORIDE [4] was 99.33 MEQ/L, the CHOLESTEROL [4] was 59.67 mg/dL and the “CREATINE PHOSPHOKINASE” value [4] was 148 u/L. The CREATININE [4] was 0.57 mg/dL, the GLUCOSE [4] was 154 mg/dL and the PHOSPHORUS [4] was 11.67 mg/dL. The POTASSIUM [4] was 5.97 MEQ/L, the SODIUM [4] was 144.33 MEQ/L and the “TOTAL BILIRUBIN” value [4] was 0.33 mg/dL. For the same compound, the “TOTAL PROTEIN” value [4] was 6.07 G/DL, the BASOPHIL [5] was 0% and the EOSINOPHIL [5] was 0%. For the same compound, the “ERYTHROCYTE COUNT” value [5] was 6.16 x10E6/uL, the HEMATOCRIT [5] was 36.47% and the HEMOGLOBIN [5] was 14 G/DL. For the same compound, the “LEUKOCYTE COUNT” value [5] was 12.17 x10E3/uL, the LYMPHOCYTE [5] was 89.67% and the “MEAN CORPUSCULAR HEMOGLOBIN” value [5] was 22.77 pg. The “MEAN CORPUSCULAR HEMOGLOBIN CONCENTRATION” value [5] was 38.4 G/DL, the “MEAN CORPUSCULAR VOLUME” value [5] was 59.23 fL and the MONOCYTE [5] was 1.33%. For the same compound, the NEUTROPHIL [5] was 9%, the “PLATELET COUNT” value [5] was 1124.67 x10E3/uL and the “ALANINE AMINOTRANSFERASE” value [5] was 31.33 u/L. The ALBUMIN [5] was 3.53 G/DL, the “ALKALINE PHOSPHATASE” value [5] was 262.33 u/L and the “ASPARTATE AMINOTRANSFERASE” value [5] was 51.67 u/L. The “BLOOD UREA NITROGEN” value [5] was 12 mg/dL, the CHLORIDE [5] was 100.33 MEQ/L and the CHOLESTEROL [5] was 57.33 mg/dL. For the same compound, the “CREATINE PHOSPHOKINASE” value [5] was 113.33 u/L, the CREATININE [5] was 0.37 mg/dL and the GLUCOSE [5] was 157.67 mg/dL. The PHOSPHORUS [5] was 12.17 mg/dL, the POTASSIUM [5] was 6.6 MEQ/L and the SODIUM [5] was 145.67 MEQ/L. The “TOTAL BILIRUBIN” value [5] was 0.2 mg/dL, the “TOTAL PROTEIN” value [5] was 5.57 G/DL and the BASOPHIL [6] was 0%. The EOSINOPHIL [6] was 0.33%, the “ERYTHROCYTE COUNT” value [6] was 6.21 x10E6/uL and the HEMATOCRIT [6] was 36.87%. For the same compound, the HEMOGLOBIN [6] was 14.97 G/DL, the “LEUKOCYTE COUNT” value [6] was 15.13 x10E3/uL and the LYMPHOCYTE [6] was 88.67%. The “MEAN CORPUSCULAR HEMOGLOBIN” value [6] was 24.1 pg, the “MEAN CORPUSCULAR HEMOGLOBIN CONCENTRATION” value [6] was 40.6 G/DL and the “MEAN CORPUSCULAR VOLUME” value [6] was 59.4 fL. The MONOCYTE [6] was 1.33%, the NEUTROPHIL [6] was 9.67% and the “PLATELET COUNT” value [6] was 1238.67 x10E3/uL. For the same compound, the “ALANINE AMINOTRANSFERASE” value [6] was 33.67 u/L, the ALBUMIN [6] was 3.63 G/DL and the “ALKALINE PHOSPHATASE” value [6] was 237 u/L. For the same compound, the “ASPARTATE AMINOTRANSFERASE” value [6] was 55.67 u/L, the “BLOOD UREA NITROGEN” value [6] was 12.33 mg/dL and the CHLORIDE [6] was 100.67 MEQ/L. The CHOLESTEROL [6] was 62 mg/dL, the “CREATINE PHOSPHOKINASE” value [6] was 118.67 u/L and the CREATININE [6] was 0.5 mg/dL. For the same compound, the GLUCOSE [6] was 159.67 mg/dL, the PHOSPHORUS [6] was 11.77 mg/dL and the POTASSIUM [6] was 6.63 MEQ/L. The SODIUM [6] was 146.67 MEQ/L, the “TOTAL BILIRUBIN” value [6] was 0.27 mg/dL and the “TOTAL PROTEIN” value [6] was 5.93 G/DL.
